Laboratory results reported in patent US20220022395A1, “JASMONIC ACID ENDOGENY PROMOTING AGENT, AND METHOD FOR PROMOTING JASMONIC ACID ENDOGENY” (Tokyo University of Science Foundation, priority 2018, published 2022).

How the values were obtained:
PDF1.2 gene [1] = assay: Measurement of expression level of PDF1.2 gene (3), real-time PCR; format: in vivo, Arabidopsis thaliana; conditions: 50 μM, 48 h; FIG. 4
Description: Arabidopsis thaliana (Col-0) seeds were sown on a transparent 96-well plate, and soaked in a 1/2 MS medium (150 μL). The seeds were left for 3-7 days in a cool and dark place, and then left to grow under long-day treatment conditions for 10 days. Thereafter, the medium was replaced with a 1/2 MS medium (100 μL) containing compound E1 (50 μM), or compound E6 (50 μM), and comparative compounds C1 and C2, vacuum treatment was applied for 10 min, and the seeds were left in the light for 48 h. Eight individual plantlets and 2 beads for crushing were placed in a tube, and immediately frozen with liquid nitrogen and stored at −80° C. In addition, for a negative control, DMSO was added instead of each of compounds E1 and E6. Then, similarly to Test Example 2, RNA was extracted from the frozen sample, and the expression level of the PDF1.2 gene was quantitatively determined by reverse transcription real-time PCR.

PDF1.2 gene [2] = assay: Measurement of expression level of PDF1.2 gene (2), real-time PCR; format: in vivo, Arabidopsis thaliana; conditions: 50 μM, 48 h; FIG. 3
Description: Arabidopsis thaliana (Col-0) seeds were sown on a transparent 96-well plate, and soaked in a 1/2 MS medium (150 μL). The seeds were left for 2-3 days in a cool and dark place, and then left to grow under long-day treatment conditions for 10 days. Thereafter, the medium was replaced with a 1/2 MS medium (100 μL) containing compound E1 (50 μM), compound E4 (50 μM), or compound E5 (50 μM), and comparative compounds C1 and C2, vacuum treatment was applied for 10 min, and the seeds were left in the light for 48 h. Eight individual plantlets and 2 beads for crushing were placed in a tube, and immediately frozen with liquid nitrogen and stored at −80° C. In addition, for a negative control, DMSO was added instead of each of compounds E1, E4, and E5. Then, similarly to Test Example 2, RNA was extracted from the frozen sample, and the expression level of the PDF1.2 gene was quantitatively determined by reverse transcription real-time PCR.

[3] = test system: Arabidopsis thaliana (Col-0); assay: Measurement of amount of endogenous jasmonic acid production (LC-MS/MS); format: in vivo; conditions: 50 μM, 24 h in the light, vs DMSO negative control; FIG. 1 (*p<0.05; **p<0.01)
Description: Arabidopsis thaliana (Col-0) seeds were sown on a transparent 96-well plate, and soaked in a 1/2 MS medium (150 μL). The seeds were left for 2-3 days in a cool and dark place, and then left to grow under long-day treatment conditions for 9-10 days. Thereafter, the medium was replaced with a 1/2 MS medium (100 μL) containing each (50 μM) of compounds E1, E2, and E3, and comparative compounds C1 and C2, vacuum treatment was applied for 10 min, and the seeds were left in the light for 24 h. About 20 to 60 mg of the plantlets (about 3 individuals) and 2 beads for crushing were placed in a tube, and immediately frozen with liquid nitrogen and stored at −80° C. In addition, for a negative control, DMSO was added instead of each of compounds E1, E2, and E3, and comparative compounds C1 and C2.
The frozen sample was crushed using a bead-type homogenizer (Bead Smash 12; WakenBtech Co., Ltd.) under conditions of 3,000 rpm for 60 sec, and then 1 mL of an aqueous solution of 70% methanol plus 1% acetic acid and 10 ng of d2-JA (internal standard) were added. The mixture was mixed thoroughly by vortexing. This solution was centrifuged at 10,000 rpm for 5 min and the supernatant was collected. The same process was repeated two more times without the addition of the internal standard, and a total of 3 mL of an extract was collected.
The solutions were then applied to a Sep-Pak (registered trademark) Vac 3cc (500 mg) C18 Cartridge (Waters) in the following order of 1. to 6.
1. acetonitrile (one column volume, about 3 mL) 2. 100% methanol (one column volume) 3. distilled water (one column volume) 4. aqueous solution of 70% methanol+1% acetic acid (two column volumes) 5. sample supernatant (total amount) 6. aqueous solution of 70% methanol+1% acetic acid (one column volume) […]
Then, the amount of endogenous jasmonic acid (JA) production was determined by LC-MS/MS. […]

PDF1.2 gene [4] = assay: Measurement of expression level of PDF1.2 gene (1), real-time PCR; format: in vivo, Arabidopsis thaliana; conditions: 24 h, relative expression (ΔΔCt, EF1-α reference)
Description: Arabidopsis thaliana (Col-0) seeds were sown on a transparent 96-well plate, and soaked in a 1/2 MS medium (150 μL). The seeds were left for 2-3 days in a cool and dark place, and then left to grow under long-day treatment conditions for 9-10 days. Thereafter, the medium was replaced with a 1/2 MS medium (100 μL) containing compound E1 (25 μM) or compound E2 (50 μM), vacuum treatment was applied for 10 min, and the seeds were left in the light for 24 h. About 20 to 60 mg of the plantlets (about 3 individuals) and 2 beads for crushing were placed in a tube, and immediately frozen with liquid nitrogen and stored at −80° C. In addition, for a negative control, DMSO was added instead of each of compounds E1 and E2. […] The concentration of the total RNA obtained was measured, and the total RNA was mixed with RNAse-free H2O to 1/12 μg/μL (6 μL H2O for 0.5 μg of the total RNA), and the mixture was placed in a PCR tube, incubated at 65° C. for 5 min, and then quenched on ice. […] Then, CFX Connect Real-Time PCR Detection System (Bio-Rad) was used to quantitatively determine the expression level of PDF1.2 gene. […] For quantification, the ΔΔCt method was used, and this value was expressed as the relative expression level. […]

MRC-5 cells = assay: Study on cytotoxicity, WST-8 method; format: cell-based, human; conditions: 50 μM, cultured 2 days, FIG. 5
Description: Normal fibroblasts MRC-5 from human fetal lung were seeded in a 96-well plate at a cell density of 5,000 cells/well, and cultured for 1 day under conditions of 37° C. and 5% CO2. After the culturing, compound E1 was added to the medium at varying concentrations, and the cells were cultured for another 2 days. Then, the number of viable cells was determined using the WST-8 method, and the viability of the MRC-5 cells was calculated. In addition, for a control, SN-38, an active metabolite of the anticancer drug irinotecan, was added instead of compound E1.

CC(C)Oc1ccc(Oc2cccc(F)c2C#N)cc1 [compound E6]
expression level of PDF1.2 gene (PDF1.2 gene [1]): markedly enhanced

COc1ccc(Oc2cccc(Cl)c2C#N)cc1 [compound E4]
expression level of PDF1.2 gene (PDF1.2 gene [2]): markedly enhanced

COc1ccc(Oc2cccc(Br)c2C#N)cc1 [compound E5]
expression level of PDF1.2 gene (PDF1.2 gene [2]): markedly enhanced

N#Cc1c(F)cccc1Oc1ccccc1 [compound E3]
amount of endogenous jasmonic acid production [3]: significantly increased

N#Cc1c(Cl)cccc1Oc1ccc(-c2nnco2)cc1 [compound E2]
amount of endogenous jasmonic acid production [3]: significantly increased
expression level of PDF1.2 gene (PDF1.2 gene [4]; 50 μM, FIG. 2B): markedly enhanced

COc1ccc(Oc2cccc(F)c2C#N)cc1 [compound E1]
amount of endogenous jasmonic acid production [3]: significantly increased
expression level of PDF1.2 gene (PDF1.2 gene [4]; 25 μM, FIG. 2A): markedly enhanced
expression level of PDF1.2 gene (PDF1.2 gene [2]): markedly enhanced
expression level of PDF1.2 gene (PDF1.2 gene [1]): markedly enhanced
viability of the MRC-5 cells (MRC-5 cells): exceeds 60%
